Assay: xn = mol fraction of the nth substance listed

CCCCCC[n+]1ccn(C)c1.O=S(=O)([N-]S(=O)(=O)C(F)(F)F)C(F)(F)F + CC(C)O
viscosity [mPa·s], 100 kPa
Conditions | x2 = 0 | x2 = 0.0845 | x2 = 0.2111 | x2 = 0.3269 | x2 = 0.4529 | x2 = 0.5435 | x2 = 0.637 | x2 = 0.7321 | x2 = 0.8285 | x2 = 0.9173
293.15 K | 85.2 | 73.5 | 57 | 42.3 | 29.9 | 22.4 | 16.2 | 12 | 8.01 | 4.5
298.15 K | 65.9 | 56.6 | 44.5 | 34.1 | 24.2 | 18.8 | 13.6 | 9.86 | 6.52 | 3.73
303.15 K | 51.9 | 45 | 36.5 | 28.6 | 20.2 | 15.6 | 11.4 | 8.26 | 5.51 | 3.24
308.15 K | 41.4 | 36 | 30.5 | 24.1 | 17.2 | 13.2 | 9.62 | 7.11 | 4.67 | 2.82
313.15 K | 33.8 | 30.5 | 25.6 | 20.6 | 14.9 | 11.3 | 8.31 | 6.06 | 3.98 | 2.41

CC[n+]1ccn(CCOC)c1.O=S(=O)([O-])C(F)(F)F + CC(C)O
viscosity [mPa·s], 101 kPa
Conditions | x1 = 0.0997 | x1 = 0.2004 | x1 = 0.3004 | x1 = 0.4003 | x1 = 0.5004 | x1 = 0.601 | x1 = 0.7 | x1 = 0.8 | x1 = 0.9 | x1 = 1
288.15 K | 4.72 | 7.33 | 10.86 | 16.19 | 21.8 | 33.6 | 47.3 | 64.2 | 85.2 | 121
293.15 K | 4.047 | 6.23 | 9.17 | 13.53 | 18.15 | 27.6 | 38 | 51.3 | 65.2 | 92.5
298.15 K | 3.489 | 5.36 | 7.83 | 11.45 | 15.16 | 22.88 | 31.09 | 41.4 | 52.2 | 72.5
303.15 K | 3.03 | 4.64 | 6.75 | 9.8 | 12.85 | 19.27 | 25.81 | 33.89 | 42.7 | 57.9
308.15 K | 2.654 | 4.06 | 5.87 | 8.47 | 11.07 | 16.64 | 21.71 | 28.27 | 35.58 | 47.3
313.15 K | 2.336 | 3.599 | 5.15 | 7.38 | 9.64 | 14.32 | 18.62 | 23.79 | 30.09 | 39
318.15 K | 2.068 | 3.192 | 4.55 | 6.49 | 8.54 | 12.42 | 16.2 | 20.22 | 25.83 | 32.59

CCCC[N+](CCCC)(CCCC)CCCC.[Br-] + CCCCCCCCCCCCOS(=O)(=O)[O-].[Na+] + O
viscosity [mPa·s], 100 kPa
Conditions | x2 = 1.81e-06, x1 = 0.0001802 | x2 = 3.61e-06, x1 = 0.0001802 | x2 = 5.42e-06, x1 = 0.0001802 | x2 = 7.23e-06, x1 = 0.0001802 | x2 = 9.04e-06, x1 = 0.0001802 | x2 = 1.084e-05, x1 = 0.0001802 | x2 = 1.265e-05, x1 = 0.0001802 | x2 = 1.446e-05, x1 = 0.0001802 | x2 = 1.627e-05, x1 = 0.0001802 | x2 = 1.807e-05, x1 = 0.0001802
293.15 K | 1.023 | 1.024 | 1.026 | 1.027 | 1.028 | 1.029 | 1.029 | 1.03 | 1.03 | 1.03
298.15 K | 0.916 | 0.919 | 0.92 | 0.921 | 0.922 | 0.922 | 0.923 | 0.924 | 0.924 | 0.925
303.15 K | 0.8 | 0.801 | 0.802 | 0.802 | 0.803 | 0.803 | 0.803 | 0.803 | 0.804 | 0.804
308.15 K | 0.72 | 0.721 | 0.722 | 0.723 | 0.724 | 0.724 | 0.724 | 0.725 | 0.725 | 0.725
313.15 K | 0.654 | 0.655 | 0.656 | 0.657 | 0.657 | 0.657 | 0.657 | 0.657 | 0.657 | 0.658
318.15 K | 0.6 | 0.601 | 0.601 | 0.601 | 0.602 | 0.602 | 0.602 | 0.602 | 0.602 | 0.603

CCCC[N+](CCCC)(CCCC)CCCC.[Br-] + CCCCCCCCCCCC[N+](C)(C)C.[Br-] + O
viscosity [mPa·s], 100 kPa
Conditions | x2 = 5.422e-05, x1 = 0.0001802 | x2 = 0.0001084, x1 = 0.0001801 | x2 = 0.0001626, x1 = 0.0001801 | x2 = 0.0002169, x1 = 0.0001801 | x2 = 0.0002711, x1 = 0.0001801 | x2 = 0.0003252, x1 = 0.0001801 | x2 = 0.0003794, x1 = 0.0001801 | x2 = 0.0004336, x1 = 0.0001801 | x2 = 0.0004878, x1 = 0.0001801 | x2 = 0.000542, x1 = 0.0001801
293.15 K | 1.056 | 1.057 | 1.059 | 1.061 | 1.061 | 1.062 | 1.062 | 1.063 | 1.063 | 1.063
298.15 K | 0.939 | 0.942 | 0.943 | 0.945 | 0.946 | 0.946 | 0.948 | 0.949 | 0.95 | 0.951
303.15 K | 0.824 | 0.825 | 0.826 | 0.826 | 0.827 | 0.827 | 0.828 | 0.828 | 0.828 | 0.828
308.15 K | 0.742 | 0.744 | 0.745 | 0.746 | 0.746 | 0.746 | 0.747 | 0.747 | 0.747 | 0.747
313.15 K | 0.675 | 0.676 | 0.677 | 0.677 | 0.678 | 0.678 | 0.678 | 0.678 | 0.678 | 0.679
318.15 K | 0.62 | 0.621 | 0.621 | 0.621 | 0.622 | 0.622 | 0.622 | 0.622 | 0.622 | 0.623

From the CheMixHub ionic liquid set
